Consider 4 compounds from US5641760A, “Method of treating candida infection” (Pence, Inc., priority 1994, dated 1997).

Assay [1] relates to Candida albicans fimbriae (binding to human BECs). The assay is described as follows: Inhibition of fimbriae binding to human buccal epithelial cells (BECs). It counts as cell-based. The note with it: fimbriae 50 μg preincubated with competitor 1 h at 37° C.; 2.0×10^5 BECs; competitor concentration not stated. As for the experimental part: The percent inhibition is the inhibition of binding in the presence of the competing antigens with respect to binding observed in the absence of any competitors.
The fimbrial adherence assay was performed using a Manifold filtration apparatus equipped with individual vacuum stopcocks (Model FH 225V, Hoefer Scientific Instruments). Polycarbonate filters, 12 μm pore size (Nucleopore Costar Corp.), were pre-incubated overnight at 4° C. with 50 ml of PBS pH 7.2, containing 0.45% (v/v) Tween 20. The pretreated filters were placed into each chamber and washed with 2.5 ml of PBS. 1 ml containing 2.0×10^5 BECs in PBS was added to each chamber. Enriched fimbriae (100 μl/chamber, ranging from 0 to 80 μg fimbriae protein/ml) in PBS containing 0.05% (v/v) Tween-20 was added to each chamber and incubated with the BECs for 1.5 hours at room temperature. Unbound fimbriae were removed with washes of 2.5 ml of PBS. Mouse anti-C. albicans fimbriae monoclonal antibody (ascites fluid diluted 1:3000 with PBS) was added to the BECs (1.2 ml/chamber) and incubated for 1.5 hour at room temperature. BECs were washed five times with 2.5 ml of PBS. Goat anti-mouse IgG(H+L)-peroxidase conjugates (Jackson Laboratories) diluted 1:5000 with PBS was added (1.0 ml/chamber) and incubated for another hour at room temperature. The cells were then washed seven times with 2.5 ml/chamber of PBS. The polycarbonate filters containing BECs were removed from the filtration manifold and placed into glass scintillation vials. The horseradish peroxidase substrate solution (ABTS) was added to each vial (1 ml/vial) and incubated for 30 min at room temperature on a shaker at 100 rpm. The reaction was stopped by the addition of 4 mM sodium azide (200 μl/vial). The substrate solution was pipetted into Eppendorf tubes and centrifuged at 5,000 g for 3 minutes. Aliquots of the supernatants were pipetted into microtiter wells (200 μl/well) and the resulting absorbance at 405 nm was recorded with a Titertek Multiskan Plus microplate recorder. […]

The test system of assay [2] is Candida albicans strain #40 fimbriae (enriched fimbriae EF, 66 kDa fimbrial subunit/adhesin protein). The assay is described as follows: Inhibition of fimbriae binding to immobilized βGalNAc(1-4)βGal-BSA conjugate. The note with it: plates coated with 10 μg/ml conjugate; read-out: Half-maximal inhibition of fimbriae binding to βGalNAc(1-4)βGal-BSA conjugate. The method, then:
Further experiments to determine the specificity of fimbrial binding to GSLs were carried out using a plate binding assay, as described above, but immobilizing on the plates a βGalNAc(1-4)βGal-BSA conjugate, synthesized from βGalNAc(1-4)βGal-O(CH2)8 COOCH3 (Sabesan and Lemieux), as described in Part B, above. The coupling ratio of disaccharide: BSA was 12:1. The protocol utilized for this assay was similar to that employed for the assessment of C. albicans fimbriae binding to GSLs except that the plates were coated with 100 μl/well of a 10 μg/ml solution of synthetic βGalNAc(1-4)βGal-BSA conjugate in 0.01M carbonate buffer, pH 9.5.
Using this assay, it was first determined that fimbriae bind to the βGalNAc(1-4)βGal-BSA conjugate in a saturable, concentration-dependent manner. FIGS. 12A and 12B show the results of experiments in which compounds were tested for ability to inhibit binding of fimbriae to the βGalNAc(1-4)βGal-BSA conjugate. The protocol used in this assay was similar to the one used in the GSL inhibition assay described above, except that the plates were coated with 100 μl/well of a 10 μg/ml solution of synthetic βGalNAc(1-4)βGal-BSA conjugate in 0.01M carbonate buffer, pH 9.5. As depicted in FIG. 12A, βGalNAc(1-4)βGal-methylester ("GalNAcGal") was able to inhibit binding to the GalNAcGal-BSA conjugate in a concentration dependent manner. […]

For assay [3], the system named is Candida albicans (binding to human buccal epithelial cells). The assay is described as follows: Inhibition of C. albicans whole cell binding to human BECs. It is filed as cell-based. The note with it: fungal cells exposed to increasing concentrations, then mixed with BECs. As for the experimental part:
Further experiments were carried out to determine the ability of βGalNAc(1-4)βGal-methylester ("GalNAcGal") to inhibit binding between whole BECs and Candida albicans.
C. albicans cells were radiolabelled as previously described by McEachran and Irvin (35, 48), incorporated herein by reference. A loopful of culture from Sabouraud-dextrose agar (GIBCO) was used as a source of inoculum for 10 ml of M9 medium supplemented with 0.4% (w/v) glucose. Cultures were incubated at 25° C. for 12 hours with 150 rpm agitation in G25 Gyrotory shaker (New Brunswick Scientific Co.). Cultures were supplemented with 5 μCi/ml of [^35 S]-L-methionine (New England Nuclear, Boston, Mass.) after 10 hours of incubation. […] The amount of [^35 S]-L-methionine incorporated by the C. albicans cells was determined by filtering 1.0 ml of a 1:100 dilution of washed C. albicans culture through a 0.2 μm polycarbonate filter (Nucleopore Corp., Pleasanton, Calif.) in triplicate, washing with 15 ml of PBS, and placing the filter in scintillation vials with 5.0 ml of Aquasol (New England Nuclear, Massachusettes). The counts per minute were determined with a Beckman LS-150 liquid-scintillation counter. […]
In a similar manner, experiments were carried out testing the ability of βGalNac(1-4)βGal to inhibit binding of C. albicans to BECs. […] Total cell counts were determined using a hemocytometer. […]

In assay [4] the test system is Candida albicans strain #40 fimbriae (enriched fimbriae EF, 66 kDa fimbrial subunit/adhesin protein). The assay can be described thus: Thin-layer chromatography plate binding assay of fimbriae to glycosphingolipids. The settings on record: 10 μg GSL per spot; 100 μg EF/ml; detected with mAb Fm16. The method, then: Bound fimbriae on the TLC plates were visualized with a Protein G affinity-purified anti-C. albicans fimbriae monoclonal antibody, Fm16, obtained from ascites tumor in Balb/c mice as described below and a goat anti-mouse IgG alkaline phosphatase. […] (Lane 2).
The thin-layer chromatography (TLC) plate binding assay was performed as described by Baker et al. (1) with minor modifications. Aluminum-backed silica gel Si60 high performance TLC plates (Merck Kieselgel Si60, no fluorescence indicator, E. Merck, Darmstadt, Germany) were cut to produce 8×2.5 cm plates which were chromatographed with 100% methanol to the top of the plate to remove impurities and the plates were air dried. Glycosphingolipids (GSLs) (10 μg of each GSL) were loaded 1.0 cm above the base of the plate. The following glycosphingolipids purchased from Sigma Co. (St. Louis, Mo.) were used: mono-sialoganglioside (M-GM1), asialoganglioside GM1 (asialo-GM1), asialoganglioside GM2 (asialo-GM2), lactosylcerebroside (LCS), ceramide trihexoside (CTH). GSLs were separated on the TLC plates in chloroform-methanol-water (65:35:8, v/v/v) and air dried. One set of plates was sprayed with 10% sulphuric acid in ethanol and heated at 100°-150° C. for 5-10 min to char the GSLs for visual detection, and the other set was used for the fimbrial binding assay. The four corners of the plate were bent to 90° and the remainder of the assay was done with the TLC plates inverted in all solutions and at room temperature in an incubator shaker (model G25 Gyroshaker, New Brunswick Scientific, New Jersey, U.S.A.) at 20 rpm agitation. The TLC plate was blocked with 50 mM tris-hydroxy-methyl aminomethane pH 7.5 containing 150 mM NaCl (TBS), 0.25% (w/v) gelatin, 3% (w/v) BSA, 5 mM EDTA and 0.05% (v/v) Nonidet P40 in a glass petri dish for 2 hr at room temperature. The blocking solution was aspirated and 10 ml of EF (100 μg EF/ml in 100 mM TBS, pH 7.5) was then added. The fimbriae were allowed to bind to GSLs for 2 hours at room temperature. The plates were gently washed (2×5 min) with 10 ml of 100 mM TBS containing 0.1% (v/v) Tween 20 (TBST). The murine anti-EF monoclonal antibody, Fm16, was diluted 1:200 with TBST and 10 ml was added to the TLC plates. The solution was incubated for 1 hour at room temperature. Unbound antibodies were removed by washing the plates with 10 ml of TBST (2×5 min). The plate was then incubated with 10 ml of goat anti-mouse immunoglobulin G alkaline phosphatase conjugate (Jackson Laboratories) diluted 1:5,000 with TBST for 1 hour at room temperature. The plates were washed (2×5 min.) with 10 ml of TBST. The alkaline phosphatase activity was localized with Nitro Blue Tetrazolium chloride (NBT) and 5-bromo-4-chloro-3-indolyl phosphate (BCIP) dissolved in 100 mM Tris buffer, pH 9.5 containing 100 mM NaCl and 5 mM MgCl2. Color development was quenched by rinsing the TLC plate with deionized water and submerging the plate into a 150 mM EDTA solution pH 8.0 for 3-5 min. The plates were air dried, stored in plastic in the dark until they were photographed.

Consider `COC(=O)CCCCCCCCO[C@@H]1O[C@H](CO)[C@H](O[C@@H]2O[C@H](CO)[C@H](O)[C@H](O)[C@H]2NC(C)=O)[C@H](O)[C@H]1O` [βGalNAc(1-4)βGal-methylester], for which the “Inhibition of C. albicans fimbriae binding to BECs” value in assay [1] was found to be 70%. Besides, the IC50 in assay [2] turned out to be 8.2 µM. The “Inhibition of binding between whole BECs and Candida albicans” value in assay [3] is “inhibited the fungal cell-BEC interaction in a concentration dependent manner”.

Take “gangliotriosylceramide: βGalNAc(1-4)βGal(1-4)βGlc(1-1)Cer [asialo-GM2]”: the “Binding of C. albicans fimbriae to glycosphingolipid on TLC plate” value (“Binding of C. albicans fimbriae” for short) in assay [4] was “bind specifically”.

Regarding lactosyl cerebroside [LCS], the “Binding of C. albicans fimbriae” value in assay [4] is “failed to bind”.

For mono-sialoganglioside [GM1], in assay [4], the “Binding of C. albicans fimbriae” value is reported as “failed to bind”.
